According to ChEMBL document CHEMBL3885881, “DrugMatrix”:

Tests used:
Rattus norvegicus [1] = species on record: Rattus norvegicus; test: DrugMatrix - Regimen: Daily Repeat; assay type: toxicity, organism-based, Sprague-Dawley; parameters: regimen Daily Repeat, gender Male, age 6-8 weeks; conditions: in vivo, po, 60 mg/kg, route oral GAVAGE, dose level High, vehicle 100 % WATER
Rattus norvegicus [2] = species on record: Rattus norvegicus; assay type: toxicity, organism-based, Sprague-Dawley; conditions: in vivo, po, 60 mg/kg, 24 h, route oral GAVAGE, dose level High, time 1 day, vehicle 100 % WATER
Description: DrugMatrix - Regimen: Single

[3] = […], tissue Plasma, time 14 day

**Q.** With `Nc1ccc(O)c(N)c1` [2,4-DIAMINOPHENOL] as the compound, how does the “URIC ACID” value (Rattus norvegicus [1]; 120 h, tissue Plasma, time 5 day) read?
**A.** The value was 0.67 mg/dL.

**Q.** What about the “ABSOLUTE BASOPHIL” value (Rattus norvegicus [1]; […], tissue Blood, time 14 day) of the same compound?
**A.** The value was 0 CELLS/uL.

**Q.** What about the “ABSOLUTE EOSINOPHIL” value (Rattus norvegicus [1]; […], tissue Blood, time 14 day) of the same compound?
**A.** Its value is 124 CELLS/uL.

**Q.** What about the “ABSOLUTE LYMPHOCYTE” value (Rattus norvegicus [1]; […], tissue Blood, time 14 day) of the same compound?
**A.** The value was 13347.2 CELLS/uL.

**Q.** And the “ABSOLUTE MONOCYTE” value (Rattus norvegicus [1]; […], tissue Blood, time 14 day)?
**A.** Its value is 291 CELLS/uL.

**Q.** And the “ABSOLUTE SEGMENTED NEUTROPHIL” value (Rattus norvegicus [1]; […], tissue Blood, time 14 day)?
**A.** Its value is 2297.8 CELLS/uL.

**Q.** And the BASOPHIL (Rattus norvegicus [1]; […], tissue Blood, time 14 day)?
**A.** The BASOPHIL was 0%.

**Q.** And the EOSINOPHIL (Rattus norvegicus [1]; […], tissue Blood, time 14 day)?
**A.** The EOSINOPHIL was 0.8%.

**Q.** What about the “ERYTHROCYTE COUNT” value (Rattus norvegicus [1]; […], tissue Blood, time 14 day) of the same compound?
**A.** Its value is 5.92 x10E6/uL.

**Q.** And the HEMATOCRIT (Rattus norvegicus [1]; […], tissue Blood, time 14 day)?
**A.** The HEMATOCRIT was 34.56%.

**Q.** And the HEMOGLOBIN (Rattus norvegicus [1]; […], tissue Blood, time 14 day)?
**A.** Its HEMOGLOBIN is 13 G/DL.

**Q.** What about the “LEUKOCYTE COUNT” value (Rattus norvegicus [1]; […], tissue Blood, time 14 day) of the same compound?
**A.** Its value is 16.06 x10E3/uL.

**Q.** What about the LYMPHOCYTE (Rattus norvegicus [1]; […], tissue Blood, time 14 day) of the same compound?
**A.** The LYMPHOCYTE was 83%.

**Q.** What about the “MEAN CORPUSCULAR HEMOGLOBIN” value (Rattus norvegicus [1]; […], tissue Blood, time 14 day) of the same compound?
**A.** Its value is 22.04 pg.

**Q.** And the “MEAN CORPUSCULAR HEMOGLOBIN CONCENTRATION” value (Rattus norvegicus [1]; […], tissue Blood, time 14 day)?
**A.** Its value is 37.6 G/DL.

**Q.** What about the “MEAN CORPUSCULAR VOLUME” value (Rattus norvegicus [1]; […], tissue Blood, time 14 day) of the same compound?
**A.** Its value is 58.5 fL.

**Q.** And the MONOCYTE (Rattus norvegicus [1]; […], tissue Blood, time 14 day)?
**A.** Its MONOCYTE is 1.8%.

**Q.** What about the NEUTROPHIL (Rattus norvegicus [1]; […], tissue Blood, time 14 day) of the same compound?
**A.** Its NEUTROPHIL is 14.4%.

**Q.** What about the “NUCLEATED RED BLOOD CELLS” value (Rattus norvegicus [1]; […], tissue Blood, time 14 day) of the same compound?
**A.** The value was 0 /100WBC.

**Q.** What about the “PLATELET COUNT” value (Rattus norvegicus [1]; […], tissue Blood, time 14 day) of the same compound?
**A.** The value was 944.4 x10E3/uL.

**Q.** And the “ALANINE AMINOTRANSFERASE” value (Rattus norvegicus [1]; [3])?
**A.** The value was 40.4 u/L.

**Q.** And the ALBUMIN (Rattus norvegicus [1]; [3])?
**A.** Its ALBUMIN is 4.32 G/DL.

**Q.** What about the “ALKALINE PHOSPHATASE” value (Rattus norvegicus [1]; [3]) of the same compound?
**A.** The value was 271.4 u/L.

**Q.** And the “ASPARTATE AMINOTRANSFERASE” value (Rattus norvegicus [1]; [3])?
**A.** Its value is 76.6 u/L.

**Q.** What about the “BLOOD UREA NITROGEN” value (Rattus norvegicus [1]; [3]) of the same compound?
**A.** Its value is 13.6 mg/dL.

**Q.** And the “CARBON DIOXIDE” value (Rattus norvegicus [1]; [3])?
**A.** Its value is 30.4 mmol/L.

**Q.** And the CHLORIDE (Rattus norvegicus [1]; [3])?
**A.** Its CHLORIDE is 101.8 MEQ/L.

**Q.** And the CHOLESTEROL (Rattus norvegicus [1]; [3])?
**A.** The CHOLESTEROL was 67.4 mg/dL.

**Q.** What about the CREATININE (Rattus norvegicus [1]; [3]) of the same compound?
**A.** Its CREATININE is 0.15 mg/dL.

**Q.** What about the GLUCOSE (Rattus norvegicus [1]; [3]) of the same compound?
**A.** The GLUCOSE was 150 mg/dL.

**Q.** What about the “LACTATE DEHYDROGENASE” value (Rattus norvegicus [1]; [3]) of the same compound?
**A.** Its value is 271.8 u/L.

**Q.** And the LIPASE (Rattus norvegicus [1]; [3])?
**A.** Its LIPASE is 7.8 u/L.

**Q.** What about the PHOSPHORUS (Rattus norvegicus [1]; [3]) of the same compound?
**A.** The PHOSPHORUS was 13.62 mg/dL.

**Q.** What about the POTASSIUM (Rattus norvegicus [1]; [3]) of the same compound?
**A.** Its POTASSIUM is 6.71 MEQ/L.

**Q.** What about the SODIUM (Rattus norvegicus [1]; [3]) of the same compound?
**A.** The SODIUM was 145.8 MEQ/L.

**Q.** And the “TOTAL BILIRUBIN” value (Rattus norvegicus [1]; [3])?
**A.** The value was 0.14 mg/dL.

**Q.** And the “TOTAL PROTEIN” value (Rattus norvegicus [1]; [3])?
**A.** Its value is 6.06 G/DL.

**Q.** And the “URIC ACID” value (Rattus norvegicus [1]; [3])?
**A.** The value was 1.14 mg/dL.

**Q.** What about the “ABSOLUTE EOSINOPHIL” value (Rattus norvegicus [2]; tissue Blood) of the same compound?
**A.** Its value is 80.67 CELLS/uL.

**Q.** And the “ABSOLUTE LYMPHOCYTE” value (Rattus norvegicus [2]; tissue Blood)?
**A.** The value was 10585.67 CELLS/uL.

**Q.** And the “ABSOLUTE MONOCYTE” value (Rattus norvegicus [2]; tissue Blood)?
**A.** Its value is 630.67 CELLS/uL.

**Q.** And the “ABSOLUTE SEGMENTED NEUTROPHIL” value (Rattus norvegicus [2]; tissue Blood)?
**A.** The value was 1169.67 CELLS/uL.

**Q.** What about the BASOPHIL (Rattus norvegicus [2]; tissue Blood) of the same compound?
**A.** The BASOPHIL was 0%.

**Q.** And the EOSINOPHIL (Rattus norvegicus [2]; tissue Blood)?
**A.** Its EOSINOPHIL is 0.67%.

**Q.** What about the “ERYTHROCYTE COUNT” value (Rattus norvegicus [2]; tissue Blood) of the same compound?
**A.** Its value is 4.98 x10E6/uL.

**Q.** What about the HEMATOCRIT (Rattus norvegicus [2]; tissue Blood) of the same compound?
**A.** The HEMATOCRIT was 31.37%.

**Q.** What about the HEMOGLOBIN (Rattus norvegicus [2]; tissue Blood) of the same compound?
**A.** The HEMOGLOBIN was 11.7 G/DL.

**Q.** What about the “LEUKOCYTE COUNT” value (Rattus norvegicus [2]; tissue Blood) of the same compound?
**A.** Its value is 12.47 x10E3/uL.

**Q.** And the LYMPHOCYTE (Rattus norvegicus [2]; tissue Blood)?
**A.** Its LYMPHOCYTE is 85%.

**Q.** And the “MEAN CORPUSCULAR HEMOGLOBIN” value (Rattus norvegicus [2]; tissue Blood)?
**A.** Its value is 23.63 pg.

**Q.** And the “MEAN CORPUSCULAR HEMOGLOBIN CONCENTRATION” value (Rattus norvegicus [2]; tissue Blood)?
**A.** The value was 37.37 G/DL.

**Q.** And the “MEAN CORPUSCULAR VOLUME” value (Rattus norvegicus [2]; tissue Blood)?
**A.** The value was 63.17 fL.

**Q.** What about the MONOCYTE (Rattus norvegicus [2]; tissue Blood) of the same compound?
**A.** The MONOCYTE was 5%.

**Q.** And the NEUTROPHIL (Rattus norvegicus [2]; tissue Blood)?
**A.** Its NEUTROPHIL is 9.33%.

**Q.** What about the “NUCLEATED RED BLOOD CELLS” value (Rattus norvegicus [2]; tissue Blood) of the same compound?
**A.** Its value is 0 /100WBC.

**Q.** What about the “PLATELET COUNT” value (Rattus norvegicus [2]; tissue Blood) of the same compound?
**A.** Its value is 963 x10E3/uL.

**Q.** And the “ALANINE AMINOTRANSFERASE” value (Rattus norvegicus [2]; tissue Plasma)?
**A.** Its value is 60.67 u/L.

**Q.** And the ALBUMIN (Rattus norvegicus [2]; tissue Plasma)?
**A.** Its ALBUMIN is 4.43 G/DL.

**Q.** What about the “ALKALINE PHOSPHATASE” value (Rattus norvegicus [2]; tissue Plasma) of the same compound?
**A.** The value was 366.33 u/L.

**Q.** What about the “ASPARTATE AMINOTRANSFERASE” value (Rattus norvegicus [2]; tissue Plasma) of the same compound?
**A.** The value was 78.33 u/L.

**Q.** What about the “BLOOD UREA NITROGEN” value (Rattus norvegicus [2]; tissue Plasma) of the same compound?
**A.** The value was 12 mg/dL.

**Q.** What about the “CARBON DIOXIDE” value (Rattus norvegicus [2]; tissue Plasma) of the same compound?
**A.** The value was 27 mmol/L.

**Q.** What about the CHLORIDE (Rattus norvegicus [2]; tissue Plasma) of the same compound?
**A.** The CHLORIDE was 103.33 MEQ/L.

**Q.** What about the CHOLESTEROL (Rattus norvegicus [2]; tissue Plasma) of the same compound?
**A.** Its CHOLESTEROL is 77.33 mg/dL.

**Q.** What about the CREATININE (Rattus norvegicus [2]; tissue Plasma) of the same compound?
**A.** Its CREATININE is 0.13 mg/dL.

**Q.** What about the GLUCOSE (Rattus norvegicus [2]; tissue Plasma) of the same compound?
**A.** Its GLUCOSE is 149 mg/dL.

**Q.** What about the “LACTATE DEHYDROGENASE” value (Rattus norvegicus [2]; tissue Plasma) of the same compound?
**A.** The value was 159 u/L.

**Q.** What about the LIPASE (Rattus norvegicus [2]; tissue Plasma) of the same compound?
**A.** Its LIPASE is 8 u/L.

**Q.** And the PHOSPHORUS (Rattus norvegicus [2]; tissue Plasma)?
**A.** Its PHOSPHORUS is 12.77 mg/dL.

**Q.** What about the POTASSIUM (Rattus norvegicus [2]; tissue Plasma) of the same compound?
**A.** Its POTASSIUM is 6.85 MEQ/L.

**Q.** What about the SODIUM (Rattus norvegicus [2]; tissue Plasma) of the same compound?
**A.** Its SODIUM is 145.33 MEQ/L.

**Q.** What about the “TOTAL BILIRUBIN” value (Rattus norvegicus [2]; tissue Plasma) of the same compound?
**A.** The value was 0.1 mg/dL.

**Q.** And the “TOTAL PROTEIN” value (Rattus norvegicus [2]; tissue Plasma)?
**A.** The value was 6 G/DL.

**Q.** And the “URIC ACID” value (Rattus norvegicus [2]; tissue Plasma)?
**A.** The value was 1.37 mg/dL.
